Measured values reported in patent US20240148821A1, “PHARMACEUTICAL USE OF CYCLIC PEPTIDE COMPOUND” (CHUGAI SEIYAKU KABUSHIKI KAISHA, priority 2021, published 2024).
Numbered stars: 1 amine (or outer) side, 2 acyl side, 3 side chain; on linkers, the order of the positions; unused ones are H or OH. Bridge positions count the residues as written; N and C are the ends. Square brackets hold non-standard residues; d marks the D form. Peptide text beside a SMILES is read from it. * marks the point of attachment. hPhe(3-Cl-4-CF3) = N[C@@H](CCc1ccc(C(F)(F)F)c(Cl)c1)C(=O)O; hPhe(3-F,4-CF3) = N[C@@H](CCc1ccc(C(F)(F)F)c(F)c1)C(=O)O; X15 = O=C([C@H](CCc1cc(Cl)c(Cl)c(Cl)c1)N[*:1])[*:2]; X18 = O=C([C@H](CCc1ccc(C(F)(F)F)cn1)N[*:1])[*:2]; NMePhe(4-Cl) = CN[C@@H](Cc1ccc(Cl)cc1)C(=O)O; X10 = C#Cc1cccc(C[C@H](N[*:1])C(=O)[*:2])c1; NMedβ3hAla = C[C@H](CC(=O)[*:2])N(C)[*:1]; NMeGly(cPent) = CN[C@H](C(=O)O)C1CCCC1; NMeGly(cBu) = CN[C@H](C(=O)O)C1CCC1; NMeCha = CN[C@@H](CC1CCCCC1)C(=O)O; Hyp = O=C(O)[C@@H]1C[C@@H](O)CN1; NMeD = CN[C@@H](CC(=O)O)C(=O)O; NMeL = CN[C@@H](CC(C)C)C(=O)O; NMeV = CN[C@H](C(=O)O)C(C)C; d(β3hA) = C[C@@H](N)CC(=O)O; NMeC = CN[C@@H](CS)C(=O)O; NPhGly = O=C(O)CNc1ccccc1; NMeA = CN[C@@H](C)C(=O)O; NMeAib = CNC(C)(C)C(=O)O; Nle = CCCC[C@H](N)C(=O)O; Piperidide = C1CCN(*)CC1; Ac5c = NC1(C(=O)O)CCCC1; Aze = O=C(O)[C@@H]1CCN1; Bn = c1ccc(C*)cc1; Sar = CNCC(=O)O

Legend:
[1] = molecular target: protein-protein interaction between Kras and SOS1 (biotin-tagged human Kras loaded with GDP, His-tagged human SOS1) (Homo sapiens (Human), UniProt P01116, G12D); assay: Protein-protein interaction inhibition between Kras and SOS1 (KrasG12D-SOS PPI) using AlphaScreen; format: biochemical; conditions: AlphaScreen; biotin-tagged human Kras loaded with GDP, His-tagged human SOS1; read-out: KRAS G12D-SOS PPI IC50;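 further: kras produced in E. coli, Ni-coupled donor beads and streptavidin acceptor beads, excitation 680 nm with emission detected at 520–620 nm via singlet oxygen transfer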
[2] = system: Human pancreatic cancer cell line AsPC-1 (G12D mutation Kras); assay: AsPC-1 cell growth inhibition (AsPC-1 CGI); format: cell-based; conditions: read-out: AsPC-1 cell growth inhibition, 50% growth inhibitory concentration (IC50 value); 96 hours, CellTiter-Glo, values classified in ranges
Experimental: Test compounds were serially dilated with dimethyl sulfoxide, and 200 nL was then dispensed to a U-bottom 96-well plate using Labcyte Echo. […] The cell suspension was dispensed to a. plate containing a test compound at 100 μL per well and incubated at 37° C. in a 5% carbon dioxide gas incubator. 96 hours later, 80 μL of CellTiter-Glo (Promega) was added to each well and fluorescence was measured.

| Compound | IC50 [1] [nM] | IC50 [2] [nM] |
| --- | --- | --- |
| CC[C@H](C)[C@@H]1NC(=O)[C@H](C)N(C)C(=O)C[C@@H](C(=O)N2CCCCC2)N(C)C(=O)[C@H](C(C)C)N(C)C(=O)C2(CCCC2)NC(=O)[C@@H]2CCCN2C(=O)[C@H](CCc2cc(Cl)c(Cl)c(Cl)c2)NC(=O)CN(C)C(=O)[C@H](CC2CCCCC2)N(C)C(=O)CN(C)C(=O)CN(C)C1=O [Compound 2068, (3S,9S,18S,21S,25S,28S,34S)-9-(cyclohexylmethyl)-28-isopropyl-7,10,13,16,21,22,26,29-octamethyl-18-[(1S)-1-methylpropyl]-25-(piperidine-1-carbonyl)-3-[2-(3,4,5-trichlorophenyl)ethyl]spiro[1,4,7,10,13,16,19,22,26,29,32-undecazabicyclo[32.3.0]heptatriacontane-31,1′-cylopentane]-2,5,8,11,14,17,20,23,27,30,33-undecone] ([NMeA]I[Sar][Sar][NMeCha][Sar][X15]P[Ac5c][NMeV][NMeD]-Piperidide; lactam N-11) | 1.7 | > 500 |
| CC[C@H](C)[C@@H]1NC(=O)[C@H](CC(C)C)N(C)C(=O)C[C@@H](C(=O)N2CCCCC2)N(C)C(=O)[C@H](C2CCCC2)N(C)C(=O)C2(CCCC2)NC(=O)[C@@H]2CCCN2C(=O)[C@H](CCc2ccc(C(F)(F)F)cn2)NC(=O)CN(C)C(=O)[C@H](CC2CCCCC2)N(C)C(=O)[C@@H]2CCN2C(=O)[C@H](C)N(C)C1=O [Compound 2069] ([NMeL]I[NMeA][Aze][NMeCha][Sar][X18]P[Ac5c][NMeGly(cPent)][NMeD]-Piperidide; lactam N-11 (inferred); C-terminus assumed) | 78 | > 500 |
| CC[C@H](C)[C@@H]1NC(=O)[C@H](CC(C)C)N(C)C(=O)C[C@@H](C)NC(=O)[C@H](CC(C)C)N(C)C(=O)C2(CCCC2)NC(=O)[C@@H]2C[C@@H](OCc3ccccc3)CN2C(=O)[C@H](CCc2ccc(C(F)(F)F)c(F)c2)NC(=O)CN(C)C(=O)[C@H](CC2CCCCC2)N(C)C(=O)CN(C)C(=O)CN(C)C1=O [Compound 2116, (3S,9S,18S,21S,25R,28S,34S,36R)-36-benzyloxy-9-(cylohexylmethyl)-3-[2-[3-fluoro-4-(trifluoromethyl)phenyl]ethyl]-21,28-diisobutyl-7,10,13,16,22,25,29-heptamethyl-18-[(1S)-1-methylpropyl]spiro[1,4,7,10,13,16,19,22,26,29,32-undecazabicyclo[32.3.0]heptatriacontane-31,1′-cyclopentane]-2,5,8,11,14,17,20,23,27,30,33-undecone] (cyclo([Ac5c][NMeL][d(β3hA)][NMeL]I[Sar][Sar][NMeCha][Sar][hPhe(3-F,4-CF3)][Hyp](Bn))) | 110 | > 500 |
| C#Cc1cccc(C[C@@H]2NC(=O)CN(C)C(=O)[C@H](Cc3ccc(Cl)cc3)N(C)C(=O)CN(C)C(=O)CN(C)C(=O)[C@H]([C@@H](C)CC)NC(=O)[C@H](CC(C)C)N(C)C(=O)C[C@@H](C(=O)N3CCCCC3)N(C)C(=O)[C@H](CC(C)C)NC(=O)C(C)(C)N(C)C(=O)[C@H](CCCC)NC2=O)c1 [Compound 2142, (3S,9S,12S,18S,27S,30S,34S)-9-butyl-18-[(4-chlorophenyl)methyl]-12-[(3-ethynylphenyl)methyl]-3,30-diisobutyl-1,6,6,7,16,19,22,25,31-nonamethyl-27-[(1S)-1-methylpropyl]-34-(piperidine-1-carbonyl)-1,4,7,10,13,16,19,22,25,28,31-undecazacyclotetratriacontane-2,5,8,11,14,17,20,23,26,29,32-undecone] ([NMeL]I[Sar][Sar][NMePhe(4-Cl)][Sar][X10][Nle][NMeAib]L[NMeD]-Piperidide; lactam N-11) | 44 | > 500 |
| CC[C@H](C)[C@@H]1NC(=O)[C@H](C)N(C)C(=O)C[C@@H](C)N(C)C(=O)[C@H](C2CCC2)N(C)C(=O)C2(CCCC2)NC(=O)CN(c2ccccc2)C(=O)[C@H](CCc2ccc(C(F)(F)F)c(Cl)c2)NC(=O)CN(C)C(=O)[C@H](CC2CCCCC2)N(C)C(=O)CN(C)C(=O)CN(C)C1=O [Compound 2143] (cyclo([Ac5c][NMeGly(cBu)][NMedβ3hAla][NMeA]I[Sar][Sar][NMeCha][Sar][hPhe(3-Cl-4-CF3)][NPhGly])) | 41 | > 500 |
| CC[C@H](C)[C@@H]1NC(=O)[C@H](C)N(C)C(=O)C[C@@H](C)N(C)C(=O)[C@H](C2CCC2)N(C)C(=O)C(C)(C)N(C)C(=O)CN(c2ccccc2)C(=O)[C@H](CCc2ccc(C(F)(F)F)c(Cl)c2)NC(=O)CN(C)C(=O)[C@H](CC2CCCCC2)N(C)C(=O)CN(C)C(=O)CN(C)C1=O [Compound 2145] (cyclo(I[Sar][Sar][NMeCha][Sar][hPhe(3-Cl-4-CF3)][NPhGly][NMeAib][NMeGly(cBu)][NMedβ3hAla][NMeA])) | 22 | > 500 |
| CC[C@H](C)[C@@H]1NC(=O)[C@H](C)N(C)C(=O)C[C@@H](C(=O)N2CCCCC2)N(C)C(=O)[C@H](C2CCC2)N(C)C(=O)C(C)(C)N(C)C(=O)CN(c2ccccc2)C(=O)[C@H](CCc2ccc(C(F)(F)F)c(Cl)c2)NC(=O)CN(C)C(=O)[C@H](CC2CCCCC2)N(C)C(=O)CN(C)C(=O)CN(C)C1=O [Compound 2150] ([NMeA]I[Sar][Sar][NMeCha][Sar][hPhe(3-Cl-4-CF3)][NPhGly][NMeAib][NMeGly(cBu)][NMeD]-Piperidide; lactam N-11) | 5.7 | > 500 |
| CC[C@H](C)[C@@H]1NC(=O)[C@H](C)N(C)C(=O)C[C@@H](C(=O)N2CCCCC2)N(C)C(=O)[C@H](C2CCC2)N(C)C(=O)C2(CCCC2)NC(=O)CN(c2ccccc2)C(=O)[C@H](CCc2ccc(C(F)(F)F)c(Cl)c2)NC(=O)CN(C)C(=O)[C@H](CC2CCCCC2)N(C)C(=O)CN(C)C(=O)CN(C)C1=O [Compound 2151] ([NMeA]I[Sar][Sar][NMeCha][Sar][hPhe(3-Cl-4-CF3)][NPhGly][Ac5c][NMeGly(cBu)][NMeD]-Piperidide; lactam N-11) | 2.5 | > 500 |
| CC[C@H](C)[C@@H]1NC(=O)CSC[C@@H](C(=O)N(C)C)N(C)C(=O)[C@H](C2CCCC2)N(C)C(=O)C2(CCCC2)NC(=O)[C@@H]2CCCN2C(=O)[C@H](CCc2ccc(C(F)(F)F)c(Cl)c2)NC(=O)CN(C)C(=O)[C@H](CC2CCCCC2)N(C)C(=O)CN(C)C(=O)CN(C)C1=O [Compound 2172, (3S,9S,18S,24R,27S,33S)-18-[(2S)-butan-2-yl]-3-[2-[3-chloro-4-(trifluoromethyl)phenyl]ethyl]-9-(cyclohexylmethyl)-27-cyclopentyl-N,N,7,10,13,16,25,28-octamethyl-2,5,8,11,14,17,20,26,29,32-decaoxospiro[22-thia-1,4,7,10,13,16,19,25,28,31-decazabicyclo[31.3.0]hexatriacontane-30,1′-cyclopentane]-24-carboxamide] ({CH2CO}-I[Sar][Sar][NMeCha][Sar][hPhe(3-Cl-4-CF3)]P[Ac5c][NMeGly(cPent)][NMeC]-NMe2; thioether N-10) | 14 | > 500 |
